Legend:
PARG = molecular target: T1, PARG (Homo sapiens, UniProt Q86W56); experiment: Enzymatic inhibitory activity against PARG, HTRF assay; format: biochemical; conditions: HTRF; PARylated PARP1 protein as substrate; 60 minutes at room temperature; read-out: IC50 against PARG enzyme
T1 construct: made in house
Description: In this experiment, the enzymatic inhibitory activity of the compounds of the present disclosure against PARG was determined using an HTRF (homogeneous time-resolved fluorescence) assay.
HTRF assay reagents were purchased from PerkinElmer (Cat. Nos. 61HISTLB and 610SAXLB). The purified protein was prepared in-house.
PARG enzyme reaction buffer: 50 mM Tris (pH 7.4), 0.1 mg/mL BSA, 3 mM EDTA, 0.4 mM EGTA, 1 mM DTT, 50 mM KCl, and 0.01% Tween 20.
• 1) Using an ultra-micro pipette, the compounds of the present disclosure were serially diluted (starting at 10 µM with 3- to 5-fold serial dilutions) and added to a 384-well reaction plate, with each concentration tested in duplicate wells. Control group 1 was added with 10 µM control compound (100% inhibition group). Control group 2 was added with DMSO (0% inhibition group). After compound addition, the 384-well plate was centrifuged at 1000 rpm for 1 minute. • 2) 2.5 µL of PARG protein was added to each well and incubated with the compounds of the present disclosure at room temperature for 15 minutes, followed by centrifugation at 1000 rpm for 1 minute. • 3) 2.5 µL of PARylated PARP1 protein was added to each well and incubated at room temperature for 60 minutes, followed by centrifugation at 1000 rpm for 1 minute. • 4) 5 µL of His-Tb & SA-XL665 HTRF assay reagents were added to each well and incubated at room temperature for 60 minutes, followed by centrifugation at 1000 rpm for 1 minute. • 5) […] were measured using a PHERAstar FSX microplate reader from BMG. • 6) Data analysis was performed using GraphPad Prism 8. The IC50 values of the compounds of the present disclosure were calculated as follows. […] The average value of duplicate wells in control group 2 (0% inhibition group) was set as the relative inhibition rate of 0%. The HTRF signal values were converted into relative inhibition rates. The IC50 values of the compounds were calculated by fitting the data to a four-parameter logistic model. Table 15: Enzymatic inhibitory activity of the compounds of the present disclosure against PARG

KURAMOCHI cells = experiment: Inhibition of proliferation of KURAMOCHI cells (CellTiter-Glo, intracellular ATP); format: cell-based; conditions: 168 h, incubated for 7 days, read-out: IC50 against KURAMOCHI cells
Description: In this experiment, the inhibitory effect of the compounds of the present disclosure on the proliferation of the cancer cell line KURAMOCHI was evaluated by measuring intracellular ATP levels using a bioluminescent assay, and the half maximal inhibitory concentration (IC50) was determined.
RPMI 1640 medium (Cat. No. 11875-093), fetal bovine serum (10099-141), and 100× Pen/Strep (15070-063) were purchased from GIBCO. CellTiter-Glo Luminescent Cell Viability Assay reagent (Cat. No. G7573) was purchased from Promega.
• 1) Day 1: KURAMOCHI cells were counted using a cell counter and seeded into a 96-well culture plate at a density of 4000 cells per well in 100 µL medium. The plate was incubated overnight in an incubator (37°C, 5% CO2). • 2) Day 2: Using a D300e digital dispenser (TECAN), 500 nL of serially diluted test compounds of the present disclosure (starting at 10 µM, a total of 9 concentrations, 1:4 dilution) were added to the cells in the culture plate. The final concentration of DMSO was 0.5%. The cell culture plate was incubated for 7 days in a cell culture incubator (37°C, 5% CO2). Control group 1 received only medium and DMSO (100% inhibition group). Control group 2 received only DMSO (0% inhibition group). The final concentration of DMSO in both groups was 0.5%. • 3) Day 9: 100 µL of CellTiter-Glo reagent was added to each well. The plate was shaken at 500 rpm for 2 minutes, centrifuged at 1000 rpm for 1 minute, and then incubated at room temperature in the dark for 10 minutes to stabilize the luminescence signal. • 4) Luminescence signals were measured using an EnVision microplate reader (PerkinElmer). • 5) Data analysis was performed using GraphPad Prism 8. The IC50 values of the compounds of the present disclosure were calculated as follows. The CTG signal values were analyzed. The average inhibition rate of control group 1 (100% inhibition group) was set as the relative inhibition rate of 100%. The average inhibition rate of control group 2 (0% inhibition group) was set as the relative inhibition rate of 0%. The CTG signal values were converted into relative inhibition rates. The inhibition percentage (inhibition%) for each concentration of the compounds of the present disclosure was calculated according to the following formula: Inhibition% = (b−x)/(b−a)*100%; [formula] • a = CTG value (highest concentration), b = CTG value (blank well), x = CTG value (test well). • IC50 was calculated using GraphPad Prism 8. • (1) The concentration and inhibition rate corresponding to each well were recorded. Statistical calculation was performed using Log10 (compound concentration). • (2) The data were input into GraphPad Prism 8 and Analysis was selected. • (3) Nonlinear regression (curve fit) was selected. • (4) Log (inhibitor) vs. response - Variable slope was selected. • (5) The calculation formula was selected, and the calculation was performed according to the following formula: Y = Bottom + (Top - Bottom) / (1 + 10 ^ ((LogIC50 - X) * HillSlope)); X: log of dose or concentration; Y: response; Top and Bottom: maximum and minimum response. • (6) The IC50 values were calculated by fitting the data. Table 16: Inhibitory effect of the compounds of the present disclosure on the proliferation of KURAMOCHI cells

T1 sequence (Q86W56 whole entry): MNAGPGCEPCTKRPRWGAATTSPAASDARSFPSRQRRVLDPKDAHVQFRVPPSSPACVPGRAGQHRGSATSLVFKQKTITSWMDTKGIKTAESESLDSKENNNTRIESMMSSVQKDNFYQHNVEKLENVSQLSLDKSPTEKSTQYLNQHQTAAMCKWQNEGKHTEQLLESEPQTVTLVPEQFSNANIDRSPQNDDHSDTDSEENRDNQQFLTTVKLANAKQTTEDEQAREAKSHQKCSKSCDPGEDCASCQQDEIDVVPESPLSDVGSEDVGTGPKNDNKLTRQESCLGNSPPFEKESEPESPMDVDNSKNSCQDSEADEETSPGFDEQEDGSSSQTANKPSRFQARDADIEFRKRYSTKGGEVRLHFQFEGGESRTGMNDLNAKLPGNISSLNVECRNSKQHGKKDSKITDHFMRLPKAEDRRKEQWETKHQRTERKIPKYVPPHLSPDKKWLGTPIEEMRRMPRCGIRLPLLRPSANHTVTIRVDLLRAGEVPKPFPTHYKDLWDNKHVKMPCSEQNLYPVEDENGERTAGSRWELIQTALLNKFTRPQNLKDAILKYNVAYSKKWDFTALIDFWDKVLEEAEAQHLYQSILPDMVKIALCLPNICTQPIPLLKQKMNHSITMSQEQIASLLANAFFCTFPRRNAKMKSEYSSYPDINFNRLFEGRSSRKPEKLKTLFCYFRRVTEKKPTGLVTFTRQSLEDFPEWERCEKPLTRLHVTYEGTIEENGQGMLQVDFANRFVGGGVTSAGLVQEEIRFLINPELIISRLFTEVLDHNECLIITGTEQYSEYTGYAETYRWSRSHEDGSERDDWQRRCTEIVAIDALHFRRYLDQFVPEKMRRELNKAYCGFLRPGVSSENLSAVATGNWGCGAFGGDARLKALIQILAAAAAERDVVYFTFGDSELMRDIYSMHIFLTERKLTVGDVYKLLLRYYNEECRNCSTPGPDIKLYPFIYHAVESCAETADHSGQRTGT

Row | SMILES | IC50 (PARG) [nM] | IC50 (KURAMOCHI cells) [nM]
1 | C=CCn1c(=O)n(-c2nnc(C(F)F)s2)c2cc(S(=O)(=O)NC3(C#N)CC3)cc(N3CCN(C(=O)C(C)(C)O)CC3)c21 [Compound A053] | 6.7 | 37
2 | C[C@H]1CN(c2cc(S(=O)(=O)NC3(C)CC3)cc3c2n2nc(NC(=O)C4CC4)nc2n3-c2nnc(C(F)F)s2)C[C@H](C)N1 [Compound 084L] | 1.1 | 29
3 | C[C@H]1CN(c2cc(S(=O)(=O)NC3(C)CC3)cc3c2nc(C2CC4(CC4)CO2)n3-c2nnc(C(F)F)s2)C[C@H](C)N1 (stereo partly shown) [Compound 079M] | 3.8 | 15
4 | C=CCn1c(=O)n(-c2nnc(C(F)F)s2)c2cc(S(=O)(=O)NC3(C#N)CC3)cc(N3CCN(c4nccn4C)CC3)c21 [Compound 067J] | 7.8 | 21
5 | N#CC1(NS(=O)(=O)c2cc(N3CCN(C(=O)N4CCCC4)CC3)c3ncn(-c4nnc(C(F)F)s4)c3c2)CC1 [Compound B013] | 21.3 | 53
6 | C=CCn1c(=O)n(-c2nnc(C(F)F)s2)c2cc(S(=O)(=O)NC3(C)COC3)cc(N3CCN(C(=O)C(C)C)CC3)c21 [Compound 068B] | 15.8 | 17
7 | C=CCn1c(=O)n(-c2nnc(C(F)F)s2)c2cc(S(=O)(=O)NC3(C#N)CC3)cc(N3CCN(C(=O)C4CCCC4)CC3)c21 [Compound 067X] | 21.1 | 23
8 | CC(C)S(=O)(=O)N1CCN(c2cc(S(=O)(=O)NC3(C)CC3)cc3c2n(C)c(=O)n3-c2nnc(C(F)F)s2)CC1 [Compound A023] | 1.5 | 4
9 | CN(C)C(=O)N1CCN(c2cc(S(=O)(=O)NC3(C)CC3)cc3c2n(C)c(=O)n3-c2nnc(C(F)F)s2)CC1 [Compound A006] | 3.7 | 8
10 | C=CCn1c(=O)n(-c2nnc(C(F)F)s2)c2cc(S(=O)(=O)NC3(C#N)CC3)cc(N3CCN(S(=O)(=O)C4(C)CC4)CC3)c21 [Compound 074B] | 2.7 | 3
11 | C=CCn1c(=O)n(-c2nnc(C(F)F)s2)c2cc(S(=O)(=O)NC3(C#N)CC3)cc(N3CCN(S(=O)(=O)C4CCOC4)CC3)c21 (stereo not shown) [Compound 074C] | 2.9 | 13
12 | C=CCn1c(=O)n(-c2nnc(C(F)(F)F)s2)c2cc(S(=O)(=O)NC3(C#N)CC3)cc(N3CCN(C(=O)C(C)(C)O)CC3)c21 [Compound 070B] | 20.3 | 25
13 | CC(C)(F)C(=O)N1CCN(c2cc(S(=O)(=O)NC3(C#N)CC3)cc3c2ncn3-c2nnc(C(F)F)s2)CC1 [Compound B014] | 31.4 | 43
14 | C=CCn1c(=O)n(-c2nnc(C(F)F)s2)c2cc(S(=O)(=O)NC3(C#N)CC3)cc(N3CCN(C(=O)C4(C)CCCO4)CC3)c21 (stereo not shown) [Compound 076J] | 7 | 9
15 | C=CCn1c(=O)n(-c2nnc(C(F)F)s2)c2cc(S(=O)(=O)NC3(C#N)CC3)cc(N3CCN([S+]([O-])C(C)(C)C)CC3)c21 (stereo not shown) [Compound 074A-11] | 2.8 | 4
16 | CC(C)n1c(=O)n(-c2nnc(C(F)F)s2)c2cc(S(=O)(=O)NC3(C#N)CC3)cc(N3CCN(C(=O)C(C)(C)O)CC3)c21 [Compound A049] | 15.7 | 50

Row | SMILES | IC50 (PARG) [nM] | IC50 (KURAMOCHI cells) [nM]
17 | Cn1c(=O)n(-c2nnc(C(F)F)s2)c2cc(S(=O)(=O)NC3(C)CC3)cc(N3CCN(C(=O)C(C)(C)O)CC3)c21 [Compound A030] | 18.2 | 10
18 | C[C@H]1CN(c2cc(S(=O)(=O)NC3(C)CC3)cc3c2nc(OC2CC2)n3-c2nnc(C(F)F)s2)C[C@H](C)N1 [Compound 077F] | 9.2 | 9
19 | [2H]C([2H])([2H])N(C(=O)N1CCN(c2cc(S(=O)(=O)NC3(C#N)CC3)cc3c2n(CC=C)c(=O)n3-c2nnc(C(F)F)s2)CC1)C([2H])([2H])[2H] [Compound A042] | 5.1 | 6
20 | C[C@H]1CN(c2cc(S(=O)(=O)NC3(C)CC3)cc3c2nc(C2CC(F)(F)CO2)n3-c2nnc(C(F)F)s2)C[C@H](C)N1 (stereo partly shown) [Compound 079J] | 1.8 | 4
21 | Cn1c(=O)n(-c2nnc(C(F)F)s2)c2cc(S(=O)(=O)NC3(C)CC3)cc(N3CCN(C(=O)C(C)(C)F)CC3)c21 [Compound A029] | 3 | 8
22 | C[C@H]1CN(c2cc(S(=O)(=O)NC3(C#N)CC3)cc3c2ncn3-c2nnc(C(F)F)s2)C[C@H](C)N1C(=O)N(C)C [Compound B017] | 31.5 | 20
23 | Cn1c(=O)n(-c2nnc(C(F)F)s2)c2cc(S(=O)(=O)NC3(C)CC3)cc(N3CCNCC3)c21 [Compound A005] | 30.4 | 45
24 | C=CCn1c(=O)n(-c2nnc(C(F)F)s2)c2cc(S(=O)(=O)NC3(C#N)CC3)cc(N3CCN(C(=O)C4CCCN4C(=O)OC)CC3)c21 (stereo not shown) [Compound 076E] | 4.9 | 35
25 | COc1nc2c(N3CCN(C(=O)C(C)C)CC3)cc(S(=O)(=O)NC3(C#N)CC3)cc2n1-c1nnc(C(F)F)s1 [Compound B020] | 19.8 | 59
26 | C#CCn1c(=O)n(-c2nnc(C(F)F)s2)c2cc(S(=O)(=O)NC3(C#N)CC3)cc(N3CCN(C(=O)C(C)C)CC3)c21 [Compound 074K] | 1.9 | 8
27 | C=CCn1c(=O)n(-c2nnc(C(F)F)s2)c2cc(S(=O)(=O)NC3(C#N)CC3)cc(N3CCN(C(=O)C4(C)CC4)CC3)c21 [Compound 067Y] | 21.2 | 34
28 | C[C@H]1CN(c2cc(S(=O)(=O)NC3(C)CC3)cc3c2n2nc(C(C)(C)O)nc2n3-c2nnc(C(F)F)s2)C[C@H](C)N1 [Compound 065T] | 1.5 | 13
29 | C[C@H]1CN(c2cc(S(=O)(=O)NC3(C)CC3)cc3c2n2nc(C(=O)NC4(C)CC4)nc2n3-c2nnc(C(F)F)s2)C[C@H](C)N1 [Compound 084K] | 0.7 | 9
30 | C[C@H]1CN(c2cc(S(=O)(=O)NC3(C#N)CC3)cc3c2n2ncnc2n3-c2nnc(C(F)F)s2)C[C@H](C)N1 [Compound 065N] | 7.3 | 9
31 | C[C@H]1CN(c2cc(S(=O)(=O)NC3(C)CC3)cc3c2n2nc(C4CC4)nc2n3-c2nnc(C(F)F)s2)C[C@H](C)N1 [Compound 065Z] | 1 | 4
32 | C=CCn1c(=O)n(-c2nnc(C(F)F)s2)c2cc(S(=O)(=O)NC3(C#N)CC3)cc(N3CCN(S(=O)(=O)N(C)C)CC3)c21 [Compound 074H] | 7.5 | 12
